Test results reported in patent US20240066135A1, “DRUG CONJUGATES AND USES THEREOF” (SUPERTRANS MEDICAL LTD, priority 2020, published 2024).
Converted amounts (≈) assume the structure as drawn. Read-outs that look alike come from different tables or passages of the source.

Tests used:
LogD (Octanol/buffer) = type: physicochemical
[1] = Thermodynamic solubility in saline; type: physicochemical; conditions: saline or isotonic, thermodynamic from solid; read-out: TD solubility in saline
[2] = Plasma protein binding, human; type: in vitro ADME; conditions: read-out: PPB, % bound, human (converted)
Red blood cell lysis = type: cell-based; conditions: human, human erythrocytes; FBS-deficient media
HepG2 cell cytotoxicity = type: cell-based; conditions: human, HepG2 cells; FBS-deficient media
[3] = hRPTEC biomarkers cytotoxicity screen; type: cell-based; conditions: human, human renal proximal tubular epithelial cells (hRPTEC); cell count, nuclear size, DNA structure, mitochondrial mass and membrane potential, phospholipidosis, glutathione content
E. coli ATCC 25922 [4] = type: cell-based
E. coli = assay: MIC testing, E. coli; type: cell-based
Description: Susceptibility testing was performed based on Clinical and Laboratory Standards Institute (CLSI) guidelines M07-A11 and M100-S29. All bacterial strains were recovered from long-term storage (−80° C.) and cultured on nutrient agar (NA) at 37° C. under aerobic conditions for approximately 20 h, except E. coli ATCC BAA-2469 that was recovered from long-term storage on nutrient agar before further passaging onto nutrient agar+25 μg/mL imipenem (according to ATCC guidelines). Minimum inhibitory concentration (MIC) assays were performed in BD non cation adjusted Mueller-Hinton broth (MHB) in 96-well flat-bottomed polystyrene plates (Corning #3370). Test articles and comparator antibiotics were prepared in sterile water to a concentration of 5.12 mg/mL. For each antibiotic stock, 2× top concentrations of test compounds and comparators were prepared in the appropriate growth medium and added to well 1 of a 96-well plate. Serial 1:1 dilutions were performed from columns 1-11 (changing tips at each dilution step); column 12 served as a positive (growth) control. A negative (sterility) control was set up in available spare wells. A suspension of each strain was prepared in sterile phosphate-buffered saline (PBS) to a density equivalent to a 0.5 McFarland standard. Bacterial suspensions were then diluted 1:150 in the appropriate medium and used to inoculate assay plates (columns 1 through 11) to provide a starting inoculum of ˜2 to 8×10^5 CFU/mL. […] The MIC was defined as the lowest concentration of test articles resulting in complete inhibition of visible growth.
MICs were determined using standard methodologies as previously described. […] Time-kill assays were performed against uropathogenic E. coli strains, including the sequence type 131 (ST131) NCTC-13341 isolate.

A. baumannii = assay: MIC testing, A. baumannii; type: cell-based; conditions: Acinetobacter baumannii
Description: (§1) Susceptibility testing was performed based on Clinical and Laboratory Standards Institute (CLSI) guidelines M07-A11 and M100-S29. All bacterial strains were recovered from long-term storage (−80° C.) and cultured on nutrient agar (NA) at 37° C. under aerobic conditions for approximately 20 h, except E. coli ATCC BAA-2469 that was recovered from long-term storage on nutrient agar before further passaging onto nutrient agar+25 μg/mL imipenem (according to ATCC guidelines). Minimum inhibitory concentration (MIC) assays were performed in BD non cation adjusted Mueller-Hinton broth (MHB) in 96-well flat-bottomed polystyrene plates (Corning #3370). Test articles and comparator antibiotics were prepared in sterile water to a concentration of 5.12 mg/mL. For each antibiotic stock, 2× top concentrations of test compounds and comparators were prepared in the appropriate growth medium and added to well 1 of a 96-well plate. Serial 1:1 dilutions were performed from columns 1-11 (changing tips at each dilution step); column 12 served as a positive (growth) control. A negative (sterility) control was set up in available spare wells. A suspension of each strain was prepared in sterile phosphate-buffered saline (PBS) to a density equivalent to a 0.5 McFarland standard. […]
(§2) MICs were determined using standard methodologies as previously described. […]

GPB = assay: MIC testing, GPB; type: cell-based; conditions: FIG. 2
Description: as §1, §2

[5] = Single SC administration tolerability; type: in vivo; conditions: highest dose tested (800 mg/kg), male CD-1 mice
E. coli ATCC 25922 [6] = assay: 9 h thigh muscle infection model in neutropenic mice; type: in vivo, CD-1 mice
Description: Using a screening-based strategy, preliminary proof-of-concept studies with V-r employed an abbreviated 9 h thigh muscle infection model in male CD-1 mice rendered neutropenic. To that end, E. coli ATCC 25922 was inoculated at 9.7×10^4 CFUs into both thigh muscles per mouse (n=5 per experimental group). V-r was administered q2h SC (110-880 mg/kg total dose) starting 1 h post-infection. At 9 h, thigh homogenates were prepared and CFUs were enumerated following culture on CLED agar.

E. coli UTI89 = assay: 24 h thigh muscle infection model in neutropenic mice; type: in vivo, CD-1 mice
Description: FIG. 4 illustrates the efficacy of V-r in reducing E. coli UTI89 bacterial burden in a 24 h thigh muscle infection model in neutropenic CD-1 mice.
In a 24 h thigh muscle infection model, E. coli UTI89 was inoculated at 7.8×10^4 CFU into one thigh muscle per mouse (n=5-8/group) and treated with V-r (total dose of […]) using a q6h dosing regimen from 1 h post-infection. […] Overall, V-r caused a ˜4 to 7.5 log10 reduction in bacterial burden, as compared to vehicle control, over the entire dose range.

[7] = PK profiles in mice, IV vs SC administration; type: in vivo; conditions: IV 10 mg/kg, SC 20 mg/kg
Description: FIG. 11 illustrates the feasibility of adaptation of V-r as a low-dose therapy to treat E. coli-associated cUTIs via sub-cutaneous administration.
Adaptation of V-r as a low-dose therapy to treat E. coli-associated cUTIs via sub-cutaneous administration was further investigated. Vancomycin can only be given by IV infusion therapy to treat systemic infections. Due to the very low dose therapy of V-r, additional modes of administration of the drug can be pursued besides IV administration pending retention of high bioavailability. In mice, the exposure of V-r (measured by the AUC) following sub-cutaneous administration was essentially 100% of that afforded by IV administration (see FIG. 11). […] Such a finding is critically important for hospitalized cUTIs (and other infections) whereby the SC route might offer a “go-home sooner” of patients and thus early discharge from the hospital for continued low dose V-r therapy from outpatient departments or within the clinical community settings. Such an approach facilitates the practice of prudent antimicrobial stewardship.

[8] = for Cl / Vd: CD-1 mice
[9] = for AUC: mice
in vivo [10] = conditions: male, CD-1, mouse, plasma, sc
in vivo [11] = conditions: beagle, dog, iv, 25 mg/kg
[12] = tested on: E. coli UNT057-1 (CTX-M-15); assay: Complicated urinary tract infection (cUTI) model
Description: Female C3H/Hej mice were placed on a 5% glucose water starting 6 days prior to infection and then for the remainder of the study. The complicated urinary tract infection (cUTI) model was established via trans-urethral injection of the bacterial inoculum. Mice were anesthetized with Ketamine HCL at 40 mg/kg body weight and Xylazine at 6 mg/kg body weight in 0.15 ml PBS injected intra-peritoneally. Using a dissection scope (10×), the urethral orifice was located and a tapered PE10 catheter (attached to MRE40 tubing and a 23 G blunt hub syringe) was inserted and 0.05 ml of the prepared inoculum slowly injected. […] E. coli UNT057-1 (CTX-M-15) strain was used for the cUTI model and inoculum grown in Tryptic soy broth (TSB) to 1.0×10^10 CFU/ml suspension. […] A positive control of meropenem was given at 300 mg/kg q12h by sub-cutaneous administration for a total of 3 days. All treatment groups consisted of 10 animals with CFU (kidneys, bladder and urine) bacterial counts at 7 days post-infection used as the endpoint for efficacy. At 7 days post-infection, urine was collected from mice into 1.5 ml sterile tubes and then mice were euthanized. Kidneys and bladders were homogenized, and the homogenates and urine were serially diluted in 1×PBS and plated onto Brain heart infusion and 0.5% charcoal agar. Agar plates were incubated at 37° C., and colony counts were recorded the following day.

[13] = Plasma protein binding, mouse; type: in vitro ADME; conditions: read-out: PPB, % bound, mouse
MRSA infections = conditions: 150 mg/kg in rats, 100 mg/kg in dogs, 15 mg/kg in humans; cited from earlier work
[14] = total dose over 9 h 110 mg/kg, q2h SC
[15] = total dose over 24 h 200 mg/kg, q6h
[16] = total dose over 24 h 1050 mg/kg
[17] = total dose over 24 h 1400 mg/kg
[18] = total dose over 24 h 1272 mg/kg

## CN[C@H](CC(C)C)C(=O)N[C@H]1C(=O)N[C@@H](CC(N)=O)C(=O)N[C@H]2C(=O)N[C@H]3C(=O)N[C@H](C(=O)N[C@H](C(=O)N[C@H](CCCNC(=N)N)C(N)=O)c4cc(O)cc(O)c4-c4cc3ccc4O)[C@H](O)c3ccc(c(Cl)c3)Oc3cc2cc(c3O[C@@H]2O[C@H](CO)[C@@H](O)[C@H](O)[C@H]2O[C@H]2C[C@](C)(N)[C@H](O)[C@H](C)O2)Oc2ccc(cc2Cl)[C@H]1O [V-r, vancomycin-D-arginine]
LogD (Octanol/buffer)
  logD: < -4.01
[1]
  solubility: 373 mg/mL (≈ 232000 µM)
[2]
  fraction unbound: 0.24
Red blood cell lysis
  CC50: > 750 µM
HepG2 cell cytotoxicity
  CC50: > 750 µM
[3]
  CC50: > 100 µM
E. coli ATCC 25922 [4]
  FOR (at 8 × MIC): <2.32 × 10^−10
E. coli
  MIC range: 8 to 16 µg/mL
E. coli; Escherichia coli
  MIC: 8 µg/mL (≈ 4.99 µM)
  MIC90: 16 µg/mL (≈ 9.97 µM)
A. baumannii
  MIC: 8 µg/mL (≈ 4.99 µM)
GPB
  antimicrobial potency towards a number of GPB: remained intact
[5]
  tolerability of a single SC administration: well tolerated
E. coli ATCC 25922 [6]; 440 mg/kg
  reduction below stasis: 1.0 log10
E. coli ATCC 25922 [6]; 880 mg/kg
  reduction below stasis: 1.3 log10
E. coli ATCC 25922 [6]; 9 h model, total dose
  extrapolated static dose: 215 mg/kg
E. coli ATCC 25922 [6]; [14]
  Log10 Group Geometric mean (CFU/g) ± SD: 5.87 ± 0.60 Log10 CFU/g
  Log10 change from vehicle (CFU/g): −1.24 Log10 CFU/g
E. coli ATCC 25922 [6]; total dose over 9 h 440 mg/kg
  Log10 Group Geometric mean (CFU/g) ± SD: 4.14 ± 0.63 Log10 CFU/g
  Log10 change from vehicle (CFU/g): −2.97 Log10 CFU/g
E. coli ATCC 25922 [6]; total dose over 9 h 880 mg/kg
  Log10 Group Geometric mean (CFU/g) ± SD: 3.76 ± 0.40 Log10 CFU/g
  Log10 change from vehicle (CFU/g): −3.35 Log10 CFU/g
E. coli UTI89; all doses higher than 200 mg/kg
  reduction of burden below stasis: up to 2.7 log10 CFU/g
E. coli UTI89; static dose
  total 24 h dose reducing E. coli burden to pre-treatment (stasis) levels: 250 mg/kg
E. coli UTI89; thigh muscle model
  reduction of E. coli burden: > 7 log10 CFU/g
E. coli UTI89; [15]
  Log10 Group Geometric mean (CFU/g) ± SD: 5.60 ± 2.28 Log10 CFU/g
  Log10 change from vehicle (CFU/g): −4.11 Log10 CFU/g
E. coli UTI89; total dose over 24 h 400 mg/kg
  Log10 Group Geometric mean (CFU/g) ± SD: 3.27 ± 1.88 Log10 CFU/g
  Log10 change from vehicle (CFU/g): −6.43 Log10 CFU/g
E. coli UTI89; total dose over 24 h 700 mg/kg
  Log10 Group Geometric mean (CFU/g) ± SD: 2.58 ± 0.25 Log10 CFU/g
  Log10 change from vehicle (CFU/g): −7.13 Log10 CFU/g
E. coli UTI89; [16]
  Log10 Group Geometric mean (CFU/g) ± SD: 2.08 ± 0.89 Log10 CFU/g
  Log10 change from vehicle (CFU/g): −7.63 Log10 CFU/g
E. coli UTI89; [17]
  Log10 Group Geometric mean (CFU/g) ± SD: 2.68 ± 1.38 Log10 CFU/g
  Log10 change from vehicle (CFU/g): −7.03 Log10 CFU/g
[7]
  exposure following sub-cutaneous vs IV administration: essentially equivalent
[8]; SC 20 mg/kg
  Cl: 7.8 mL/min/kg
  Vd: 0.59 L/kg
[8]; SC 121 mg/kg
  Cl: 5.4 mL/min/kg
  Vd: 0.60 L/kg
[8]; SC administration
  elimination kinetics: first-order elimination
[9]; single IV 25 mg/kg, 25 mg/kg
  AUC: 43.27 µg·h/mL
[9]; single IV 50 mg/kg, 50 mg/kg
  AUC: 103.64 µg·h/mL
[9]; single IV 1-50 mg/kg
  PK profile: linear
In vivo [10]; 20 mg/kg
  AUC: 42.7 µg·h/mL
  Cmax: 20.4 µg/mL
  half-life: 0.87 h
In vivo [10]; 121 mg/kg
  AUC: 366 µg·h/mL
  Cmax: 98.4 µg/mL
  half-life: 1.29 h
In vivo [11]
  AUC: 580 µg·h/mL
[12]; bladder, q12h for 3 days
  q12h dose with maximal abrogation of bacterial burden, bladder: 25 mg/kg
[12]; kidney
  required daily 24 h dose to cause maximal reductions in bacterial burden: 100 mg/kg
[12]; kidney, q12h for 3 days
  q12h dose with maximal abrogation of bacterial burden, kidney: 50 mg/kg
[12]; urine and bladder
  required daily 24 h dose to cause maximal reductions in bacterial burden: 50 mg/kg
[12]; urine, q12h for 3 days
  q12h dose with maximal abrogation of bacterial burden, urine: 25 mg/kg

## CN[C@H](CC(C)C)C(=O)N[C@H]1C(=O)N[C@@H](CC(N)=O)C(=O)N[C@H]2C(=O)N[C@H]3C(=O)N[C@H](C(=O)N[C@H](C(=O)O)c4cc(O)cc(O)c4-c4cc3ccc4O)[C@H](O)c3ccc(c(Cl)c3)Oc3cc2cc(c3O[C@@H]2O[C@H](CO)[C@@H](O)[C@H](O)[C@H]2O[C@H]2C[C@](C)(N)[C@H](O)[C@H](C)O2)Oc2ccc(cc2Cl)[C@H]1O [Vancomycin, vancomycin, reference compound]
[1]
  solubility: > 50 mg/mL
[13]
  fraction unbound: 0.5
[2]
  fraction unbound: 0.5
Red blood cell lysis
  CC50: > 750 µM
HepG2 cell cytotoxicity
  CC50: > 750 µM
[3]
  CC50: > 100 µM
E. coli; Escherichia coli, read-out: MICs
  MIC: 64 to 256 µg/mL (≈ 44.2 to 177 µM)
A. baumannii; read-out: MICs
  MIC: 64 to 256 µg/mL (≈ 44.2 to 177 µM)
E. coli ATCC 25922 [6]; dose equivalent to the highest dose of V-r
  impact on E. coli burden: failed to significantly impact E. coli burden
E. coli ATCC 25922 [6]; total dose over 9 h 800 mg/kg
  Log10 Group Geometric mean (CFU/g) ± SD: 6.60 ± 0.66 Log10 CFU/g
  Log10 change from vehicle (CFU/g): −0.51 Log10 CFU/g
E. coli UTI89; [18]
  Log10 Group Geometric mean (CFU/g) ± SD: 8.48 ± 1.31 Log10 CFU/g
  Log10 change from vehicle (CFU/g): −1.23 Log10 CFU/g
MRSA infections
  target AUC in the treatment of MRSA infections: approximately 400 mg·h/l
